Results from patent publication US20230312561A1, “SOLID FORMS OF (Z)-METHYL 3-(((4-(N-METHYL-2-(4-METHYLPIPERAZIN-1-YL)ACETAMIDO)PHENYL)AMINO)(PHENYL)METHYLENE)-2-OXO-2,3-DIHYDRO-1H-PYRROLO[2,3-B]PYRIDINE-6-CARBOXYLATE AND SALTS THEREOF” (Angion Biomedica Corp., priority 2020, published 2023).

Columns and labels:
Assay type in all cases: physicochemical
[1] = Solid state stability under desiccant conditions (two weeks)
Method: Stability of Compound 1 Hydrochloride Forms A and C was evaluated under desiccant conditions. Compound 1 Hydrochloride Form A (Type 1 Lot) and a mixture comprising Compound 1 Hydrochloride Form A (Type 2 Lot) and Form C were stored under desiccant conditions for a two week period. Solids were then re-analyzed using methods described herein.

[2] = Dynamic Vapor Sorption (DVS) analysis with XRPD after equilibration
Method: Sorption isotherms were obtained using a Hiden Isochema moisture sorption analyzer (model IGAsorp), controlled by IGAsorp Systems Software V6.50.48. The sample was maintained at a constant temperature (25° C.) by the instrument controls. The humidity was controlled by mixing streams of dry and wet nitrogen, with a total flow of 250 mL·min^−1. The instrument was verified for relative humidity content by measuring three calibrated Rotronic salt solutions (10%, 50%, 88%). The weight change of the sample was monitored as a function of humidity by a microbalance (accuracy+/−0.005 mg). A defined amount of sample was placed in a tared mesh stainless steel basket under ambient conditions. A full experimental cycle typically consisted of three scans (sorption, desorption and sorption) at a constant temperature (25° C.) and 10% RH intervals over a 0-90% range (60 minutes for each humidity level). […]
This water content decreased as relative humidity decreased in the first desorption cycle.
The solid absorbed 3.39% water over the humidity range. […] The profile was similar to that of Form C in Example 7.2.

[3] = Solution state stability of Compound 1 Hydrochloride (HPLC purity in stressing media, 25° C.)
Method: The solution state stability of Compound 1 Hydrochloride Form A (Type 1 Lot) was examined under various storage conditions within a suitable glass vessel with stirrer bead agitation at 25° C. Compound 1 Hydrochloride stock solution ([…]) in HPLC diluent (acetonitrile/water, 1:1) was prepared and 5 mL placed within suitable glass vessels with stirrer bead agitation at 25° C. An aliquot of the appropriate stressing medium (5 mL) was added to achieve a sample concentration of approximately 0.5 mg/mL. The samples were agitated and stored at 25° C. and the solutions assessed for HPLC purity for stability at particular time points.

SMILES: COC(=O)c1ccc2c(c1)NC(=O)/C2=C(\Nc1ccc(N(C)C(=O)CN2CCN(C)CC2)cc1)c1ccccc1.Cl [Compound 1 Hydrochloride Form A (Type 1 Lot)]
- Appearance After Storage [1]: Yellow powder
- TGA weight reduction [1]: Weight reduction of 5.6%
- XRPD [1]: Form A
- XRPD across the humidity range over the course of DVS analysis ([2]; 0-90% RH): Form A remained
- water absorbed over the humidity range (DVS) ([2]; 25° C., 0-90% RH): 13.4 wt %
- reversibility of water uptake (DVS) ([2]; as relative humidity decreased): reversible
- water uptake (DVS) ([2]; high humidity, comparison stated in Example 7.3): above 13%
- water uptake up to 30% RH (DVS) ([2]; up to 30% RH): 8.5 wt %
- HPLC (%) ([3]; 1 M HCl, 1 h): 99.53%
- HPLC (%) ([3]; 1 M HCl, 6 h): 99.29%
- HPLC (%) ([3]; 1 M HCl, 24 h): 96.56%
- HPLC (%) ([3]; 1 M HCl, 3 d): 95.63%
- HPLC (%) ([3]; 1 M HCl, 7 d): 90.58%
- HPLC (%) ([3]; 1 M NaOH, 1 h): 0.49%
- HPLC (%) ([3]; 1 M NaOH, 6 h): 0.65%
- HPLC (%) ([3]; 5% H2O2, 1 h): 80.39%
- HPLC (%) ([3]; 5% H2O2, 6 h): 46.74%
- HPLC (%) ([3]; 5% H2O2, 24 h): 0.42%
- HPLC (%) ([3]; Control (water), 1 h): 99.68%
- HPLC (%) ([3]; Control (water), 6 h): 99.69%
- HPLC (%) ([3]; Control (water), 24 h): 99.54%
- HPLC (%) ([3]; Control (water), 3 d): 99.42%
- HPLC (%) ([3]; Control (water), 7 d): 99.50%
